# Legend:
# [1] = compound: CC1=C(C(=NN1)C)CC2=C(C3=C(S2)N(C(=O)N(C3=O)C)CC(C)C)C(=O)N4C[C@@H](CO4)O; experiment: relative viability (nuclei count vs DMSO), 5 days (fraction); higher = more cells survive
# In short: (§1)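 Viability here means nuclei in treated wells divided by nuclei in vehicle wells, reported as the median across plates. Only plates with control CV below 25% and at least one doubling passed. Lung cancer cell lines in 1536-well plates were exposed to five √10-spaced library-drug doses for 5 days and counted from 4× Hoechst images in MetaXpress.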
# IDH-C35 = compound: Cc1ccccc1C(C(=O)NC1CCCCC1)N(C(=O)Cn1ccnc1C)c1cccc(F)c1 [IDH-C35]; experiment: as above
# In short: as §1
Cell Line,relative viability ([1]; 0.0025 µM),relative viability ([1]; 0.007906 µM),relative viability ([1]; 0.025 µM),relative viability ([1]; 0.07906 µM),relative viability ([1]; 0.25 µM),relative viability (IDH-C35; 0.08 µM),relative viability (IDH-C35; 0.253 µM),relative viability (IDH-C35; 0.8 µM),relative viability (IDH-C35; 2.53 µM),relative viability (IDH-C35; 8 µM)
201T,1.04,0.983,0.982,0.96,0.988,0.985,0.983,1.01,1,0.958
A549,1.04,1.11,0.931,0.953,1.04,1,0.966,0.956,0.918,0.974
A-427,1.04,1.1,0.996,1.05,1.1,1.06,1.01,0.926,0.991,1.03
ABC-1,0.978,0.921,0.714,0.994,0.902,0.953,0.938,0.91,1.03,0.992
BEN,0.885,0.949,0.735,0.788,0.865,0.964,0.97,0.904,0.972,1.01
CAL-12T,1.03,1.03,0.958,1.12,1.13,0.982,1.04,0.982,1.05,0.979
COR-L23,0.965,1.08,0.919,0.933,0.976,1.1,1.08,1.01,0.995,0.978
COR-L 105,0.952,0.976,0.897,0.897,1.02,0.897,0.921,0.926,0.863,0.91
Calu-6,1.04,1.01,0.982,1.03,1.03,1.05,0.968,1.03,0.997,0.937
ChaGo-K-1,0.989,0.98,0.901,0.969,1.06,0.994,0.941,0.993,0.966,1.02
EBC-1,1.01,1.07,0.868,1.08,1.05,1.05,1.01,0.992,0.981,0.96
EKVX,1.08,1.03,0.952,0.883,0.989,0.991,0.991,0.922,0.861,0.997
EMC-BAC-2,1.07,1.11,0.898,0.995,1.05,0.962,0.988,1,0.987,1.03
EPLC-272H,1.02,0.906,0.968,0.974,1.01,0.935,1.04,0.898,0.76,0.882
H3255,1.01,0.925,0.866,0.94,1.1,0.955,1,0.988,0.978,1.11
HARA,1.03,1.05,1.01,1.02,1,1,0.949,0.915,1.03,0.931
HCC-15,1.04,1.03,1.01,1.04,1.12,1,0.97,0.956,,0.925
HCC-44,1.01,1.01,0.992,0.931,1.05,0.949,0.947,0.971,0.998,0.942
HCC-78,1.08,1.14,0.845,0.91,0.832,0.925,0.979,0.896,0.998,0.928
HCC-366,0.986,1.03,1.03,0.988,1.04,1.04,1.04,0.97,0.935,0.934
HCC-827,0.904,1.08,1.06,1.04,1.06,1.06,0.934,1.04,0.991,1.02
HOP-62,0.962,0.976,0.953,0.977,1.17,1.03,1.03,0.957,0.81,0.964
IA-LM,0.945,0.998,0.96,1.02,1.07,0.947,1.02,0.858,0.887,0.999

Cell Line,relative viability ([1]; 0.0025 µM),relative viability ([1]; 0.007906 µM),relative viability ([1]; 0.025 µM),relative viability ([1]; 0.07906 µM),relative viability ([1]; 0.25 µM),relative viability (IDH-C35; 0.08 µM),relative viability (IDH-C35; 0.253 µM),relative viability (IDH-C35; 0.8 µM),relative viability (IDH-C35; 2.53 µM),relative viability (IDH-C35; 8 µM)
LC-2-ad,0.982,0.93,0.956,1.04,1.04,0.993,1,0.966,0.701,0.898
LCLC-97TM1,1.05,1.13,0.98,0.957,1.02,0.807,1.03,0.936,,0.91
LCLC-103H,1.1,1.06,1,0.919,0.973,0.968,0.957,0.933,1.02,0.913
LK-2,1,1.03,0.818,0.804,0.898,0.881,0.995,0.996,0.998,0.943
LOU-NH91,1,0.989,1.01,1.12,1.03,0.945,0.986,0.987,0.917,0.96
LU99A,0.968,0.995,0.887,1.03,0.893,1.04,0.992,0.895,0.919,0.964
LXF-289,1.02,1.02,0.975,0.971,1.02,1.02,1,1.02,0.99,0.997
NCI-H23,1.01,1.05,0.867,0.975,1.09,1,1.04,0.95,0.806,0.859
NCI-H322M,0.98,1.02,0.948,1.02,0.919,0.92,0.973,0.933,0.963,1
NCI-H358,1.09,0.992,1.01,1.02,0.983,0.942,0.984,0.807,0.942,0.919
NCI-H441,1,1.05,0.901,1.08,1.13,1.11,0.892,1,0.982,0.909
NCI-H460,1.02,1.08,0.955,0.968,1.06,1.01,0.99,1.01,0.957,0.94
NCI-H520,1.03,0.914,0.644,0.79,0.628,1.01,1.05,0.87,0.91,1
NCI-H522,0.933,1.12,0.735,0.64,0.653,1.02,1.07,0.931,0.884,0.99
NCI-H596,1.09,1.13,0.978,1.04,1.11,0.884,0.938,0.972,0.925,1.01
NCI-H647,1.03,1.1,0.932,0.915,0.934,1.03,0.94,0.972,0.936,0.949
NCI-H650,0.987,0.91,0.869,0.919,1.06,0.894,1.2,0.981,,0.962
NCI-H661,0.948,0.997,0.956,0.946,0.964,0.994,0.971,0.978,0.983,0.91
NCI-H727,1.07,1,1,0.875,0.964,0.81,0.98,1.01,0.979,1.01
NCI-H838,0.992,0.979,0.876,0.84,0.856,1.07,0.935,0.978,1.01,0.981
NCI-H1299,1.01,1,0.952,1.01,1.03,1.04,0.952,1.01,0.991,1.01
NCI-H1355,1.08,1.03,0.994,0.993,0.952,0.978,0.971,0.961,0.915,0.944
NCI-H1395,0.962,0.841,0.713,0.795,0.719,0.942,0.866,0.929,0.877,0.882

Cell Line,relative viability ([1]; 0.0025 µM),relative viability ([1]; 0.007906 µM),relative viability ([1]; 0.025 µM),relative viability ([1]; 0.07906 µM),relative viability ([1]; 0.25 µM),relative viability (IDH-C35; 0.08 µM),relative viability (IDH-C35; 0.253 µM),relative viability (IDH-C35; 0.8 µM),relative viability (IDH-C35; 2.53 µM),relative viability (IDH-C35; 8 µM)
NCI-H1437,1.05,0.981,0.953,0.996,0.991,1.04,1.02,0.993,0.995,0.959
NCI-H1563,1.06,1.06,0.97,1.07,0.973,0.972,0.974,1.01,0.981,0.957
NCI-H1623,1.02,0.899,1.01,1.01,0.955,0.969,0.975,0.95,1,1.04
NCI-H1648,1.01,0.971,0.992,0.624,0.678,0.756,0.758,0.953,0.761,0.942
NCI-H1650,0.986,1.07,1.11,1.14,1.21,1.01,0.986,0.928,0.923,0.839
NCI-H1651,0.962,1.08,0.986,0.963,0.993,0.939,0.947,0.921,1,0.959
NCI-H1666,1.09,0.97,1.01,0.983,1.02,1,0.956,0.965,1.06,1.04
NCI-H1703,1.03,0.895,0.917,0.895,0.897,0.96,1.02,0.95,0.901,0.955
NCI-H1734,1.01,1.16,1.03,0.889,0.962,1.06,1.04,1,0.879,0.995
NCI-H1755,1.03,1,1.03,0.989,1.03,1.05,0.961,0.968,1.03,1.01
NCI-H1792,0.933,0.773,0.751,0.744,0.736,0.832,0.862,0.974,0.969,1.13
NCI-H1793,0.94,0.995,1,0.886,0.686,0.961,0.874,0.844,0.859,0.994
NCI-H1915,1.04,1.03,0.993,0.991,1.03,0.993,0.975,1.01,0.952,0.913
NCI-H1944,1.04,1.1,0.982,0.933,0.944,1.01,1.07,0.927,0.941,0.976
NCI-H1975,1.07,0.997,0.873,0.988,1.02,0.968,1.01,0.986,1.05,0.966
NCI-H1993,1.05,0.91,0.963,0.843,0.884,0.843,0.955,0.891,1.02,0.955
NCI-H2009,1.07,1.08,0.963,1.09,1.09,1.03,1.03,1.01,0.988,0.946
NCI-H2023,1.03,1.09,0.934,0.976,1.03,0.981,1.08,0.959,0.981,0.994
NCI-H2085,0.992,0.954,0.939,0.981,0.793,1.01,1,0.957,1.09,0.969
NCI-H2087,1.05,1.13,0.951,0.92,1.26,1.2,1.07,0.945,0.898,0.931
NCI-H2126,1.05,1.01,1,0.935,1.06,1.01,1.02,0.965,0.937,0.92
NCI-H2170,0.973,1.02,0.966,0.906,0.965,0.971,0.948,1.02,0.867,0.983
